The values below come from patent publication US8354102B2, “Antibodies directed to mGluR7” (Hoffmann-La Roche Inc., priority 2007, dated 2013).

Data set [1] deals with p44/42 MAPK (Thr202/Tyr204) in CHO cells expressing mGlu7 receptors. Put plainly: p44/42 MAPK activities (PathScan Sandwich ELISA) in CHO cells expressing mGlu7 receptors. The format is cell-based, rat. Particulars: 5 minutes stimulation; FIG. 8C. The procedure:
Cells stably expressing the rat mGluR7 receptor are seeded in growth medium in 6 well plates. The next day, medium is replaced with 2 ml starvation medium (Opti-MEM with 0.1% fatty acid free BSA). The following day cells are stimulated with compound in 150 μl starvation medium for the indicated times at 37° C., otherwise cells are stimulated for 5 minutes. Cells are washed with ice cold PBS and lyzed in 150 ul buffer containing 1 mM β-glycerophosphate 1 mM EDTA, 1 mM EGTA, 1 μg/ml leupeptin, 150 mM sodium chloride, 2.5 mM sodium phosphate, 20 mM Tris-Cl, 1 mM PMSF and 1% Triton X-100, scraped off and sonicated on ice. After centrifugation the supernatant is analyzed for p44/42 MAPK activities using the PathScan™ Sandwich ELISA kit according to instructions of the manufacturer. Absorbance ([…]) is read using the EnVision reader (Perkin Elmer).
A general note: An ELISA detects its analyte on a solid surface through an enzyme-linked reagent.

In the next data set the target is T1, rat mGlu7a receptor (Rattus norvegicus, UniProt P35400).
T1 construct: expressed in transfected cells
Put plainly: CRE-luciferase reporter gene assay in rat mGlu7a transfected CHO clones. In kind it is cell-based. To be noted: 1 μM forskolin and 0.5 mM L-AP4, 4 h; responses across clones ranged from no depression to this maximum. The source says:
The cDNA of the rat mGlu7a receptor splice variant (Genbank: D16817) was inserted into a eukaryotic expression vector pcDNA3.1(+). This plasmid was transfected into CHO cells deficient in dihydrofolate reductase activity (CHO-dhfr^−) harboring a luciferase reporter gene under the control of 5 cAMP-responsive elements (CRE) using Lipofectamine plus according to the instruction of the manufacturer. Clones were isolated through limited dilutions and identified by activities in the reporter gene assay. Cells were stimulated with 1 μM forskolin and 0.5 mM L-AP4 in the assay buffer. After 4 h the supernatant was exchanged with lysis buffer and the luciferase activity measured. Responses ranged from no depression to about 83% depression. A clonal cell line displaying the greatest inhibition of forskolin-mediated luciferase activity was selected and identified as giving consistently good responses for up to at least 20 passages.
On the technique in general: In a reporter assay the amount or activity of a reporter protein is the signal.

The target in another data set is T2, rat mGluR7 receptor (Rattus norvegicus, UniProt P35400).
T2 construct: expressed in transfected cells
Put plainly: Antibody mediated cellular uptake of siRNA-Cy5 in mGluR7 expressing CHO cells. In kind it is cell-based. Particulars: mix of 67 nM primary antibody and 20 nM siRNA-Cy5, 37° C., 40 minutes; FIG. 5 E-H. The procedure: The experiment was carried out according to the protocol, with the following modifications: The cells were incubated with 67 nm primary antibody conjugated to siRNA-Cy5 (Molar ratio 1 to 0.3) or a mix of 67 nM primary antibody and 20 nM siRNA-Cy5 at 37° C. for 40 minutes. The secondary antibody used for detection of cell surface primary immunostaining was labelled with Alexa488 and the secondary antibody used for detection of whole cell primary immunostaining was labelled with Alexa532. The Trueblue and hoechst staining of the cytoplasm was replaced with a staining step following the formaldehyde fixation, where the samples where incubated with 3 uM Hoechst and 2 μg/ml CellmaskBlue in PBS for 15 minutes at roomtemperature followed by a second fixation with 4% formaldehyde for 15 minutes at roomtemperature.
Each row contains images acquired in parallel of the same field of view in the well. Panel A-D is with primary antibody labelled with siRNA-Cy5, panel E-H with primary antibody mixed with siRNA-Cy5.

In the oligonucleotide strings, read from the 5' end, every base follows the letter of its sugar. An asterisk marks phosphorothioate; unmarked linkages are phosphodiester. Other units and linkages are bracketed, terminal groups are in braces. A string of capitals states the bases alone. [C6SSC6] = C6-disulfide-C6 linker; {Cy5} = Cy5 fluorescent dye label; d = 2'-deoxy (DNA); m = 2'-O-methyl; r = 2'-OH (RNA)

T2 sequence (P35400 35-915): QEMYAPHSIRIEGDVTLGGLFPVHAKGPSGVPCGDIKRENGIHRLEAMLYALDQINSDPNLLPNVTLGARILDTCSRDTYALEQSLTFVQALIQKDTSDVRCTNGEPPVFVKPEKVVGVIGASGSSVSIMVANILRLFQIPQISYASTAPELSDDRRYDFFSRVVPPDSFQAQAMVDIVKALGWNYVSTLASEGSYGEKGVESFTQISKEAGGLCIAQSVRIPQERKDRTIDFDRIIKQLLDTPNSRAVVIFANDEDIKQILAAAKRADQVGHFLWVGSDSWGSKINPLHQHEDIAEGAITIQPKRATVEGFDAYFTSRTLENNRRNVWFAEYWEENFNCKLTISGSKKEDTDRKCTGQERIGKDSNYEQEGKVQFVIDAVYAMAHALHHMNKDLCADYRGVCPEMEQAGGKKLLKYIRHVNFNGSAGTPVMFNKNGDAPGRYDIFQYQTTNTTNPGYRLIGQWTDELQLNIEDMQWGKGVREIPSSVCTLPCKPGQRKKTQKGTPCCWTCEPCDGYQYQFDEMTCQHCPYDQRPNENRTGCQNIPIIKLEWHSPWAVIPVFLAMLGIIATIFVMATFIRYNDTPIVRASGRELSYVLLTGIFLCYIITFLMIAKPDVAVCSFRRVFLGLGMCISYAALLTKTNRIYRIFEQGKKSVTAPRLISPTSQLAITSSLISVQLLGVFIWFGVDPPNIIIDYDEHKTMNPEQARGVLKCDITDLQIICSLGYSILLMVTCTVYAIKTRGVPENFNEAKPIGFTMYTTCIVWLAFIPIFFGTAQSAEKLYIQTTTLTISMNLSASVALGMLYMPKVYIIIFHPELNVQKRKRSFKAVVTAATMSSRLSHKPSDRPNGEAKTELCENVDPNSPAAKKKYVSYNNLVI
T1 sequence (P35400 35-915): as above

As for `Cl.Cl.c1ccc(C(NCCNC(c2ccccc2)c2ccccc2)c2ccccc2)cc1` [AMN082, Dibenzhydrylethane-1,2-diamine dihydrochloride], in data set [1], the “triggering of increases of p44/42 MAPK activities (specificity)” value was “do not trigger increases”. Turning to `NC(CCP(=O)(O)O)C(=O)O` [L-AP4], the “triggering of increases of p44/42 MAPK activities (specificity)” value in data set [1] is “do not trigger increases”. For the same compound, the “depression of forskolin-mediated luciferase activity” value at rat mGlu7a receptor is given as “about 83%”.

“siRNA: Cy5 labeled siRNA, sense SEQ ID NO: 1 with C6SSC6 linker, antisense SEQ ID NO: 2; tested mixed with IgG (sense {Cy5}-mCmUmUrAmCrGmCmUrGrArGmUrAmCmUmUmCrGrAdTdT[C6SSC6]dT; antisense rUrCrGrArArGmUrArCrUmCrArGrCrGmUrArArGdT*dT)”: in the data set with rat mGluR7 receptor, the “internalization without a covalent link between IgG and siRNA” value was “only the IgG is internalized”.
